From paper PMC5218480 (PLoS ONE, 2017)

Tested on: MV-4-11 cells
Assay: Gene expression microarray analysis (Affymetrix PrimeView) and GSEA
Type: cell-based, human
Design: RFU PODN (11730768_x_at) / Fold change /veh PODN (11730768_x_at) / RFU LINC00158 (11744669_a_at) / Fold change /veh LINC00158 (11744669_a_at) / RFU DUSP10 (11751237_a_at) / Fold change /veh DUSP10 (11751237_a_at) / RFU ID3 (11757404_x_at) / Fold change /veh ID3 (11757404_x_at) / RFU PLEKHG5 (11737974_s_at) / Fold change /veh PLEKHG5 (11737974_s_at) / RFU LRRC4B (11730491_at) / Fold change /veh LRRC4B (11730491_at) / RFU GIMAP4 (11747438_a_at) / Fold change /veh GIMAP4 (11747438_a_at) / RFU KRT8 (11758183_x_at) / Fold change /veh KRT8 (11758183_x_at) / RFU CNN1 (11734310_a_at) / Fold change /veh CNN1 (11734310_a_at) / RFU VPS37D (11726825_at) / Fold change /veh VPS37D (11726825_at) / RFU C10orf10 (11716522_x_at) / Fold change /veh C10orf10 (11716522_x_at) / RFU KIR2DL2 /// KIR2DL4 /// KIR2DL5A /// KIR2DL5B /// KIR2DS1 /// KIR2DS2 /// KIR2DS3 /// KIR2DS4 /// KIR3DL3 /// KIR3DL3 /// KIR3DS1 (11738374_at) / Fold change /veh KIR2DL2 /// KIR2DL4 /// KIR2DL5A /// KIR2DL5B /// KIR2DS1 /// KIR2DS2 /// KIR2DS3 /// KIR2DS4 /// KIR3DL3 /// KIR3DL3 /// KIR3DS1 (11738374_at) / RFU C1QL1 (11718748_at) / Fold change /veh C1QL1 (11718748_at) / RFU TMPRSS4 (11747572_a_at) / Fold change /veh TMPRSS4 (11747572_a_at) / RFU HAMP (11756126_x_at) / Fold change /veh HAMP (11756126_x_at) / RFU RNFT2 (11725882_a_at) / Fold change /veh RNFT2 (11725882_a_at) / RFU NR4A2 (11747474_a_at) / Fold change /veh NR4A2 (11747474_a_at) / RFU ABCC12 (11746883_a_at) / Fold change /veh ABCC12 (11746883_a_at) / RFU TMEM136 (11760407_x_at) / Fold change /veh TMEM136 (11760407_x_at) / RFU CLDN22 /// WWC2 (11732394_at) / Fold change /veh CLDN22 /// WWC2 (11732394_at) / RFU HLA-DPB1 (11760878_x_at) / Fold change /veh HLA-DPB1 (11760878_x_at) / RFU SPINT1 (11716480_a_at) / Fold change /veh SPINT1 (11716480_a_at) / RFU GAP43 (11754022_s_at) / Fold change /veh GAP43 (11754022_s_at) / RFU A4GNT (11735810_at) / Fold change /veh A4GNT (11735810_at) / RFU PRB3 (11715151_x_at) / Fold change /veh PRB3 (11715151_x_at) / RFU TUBB4B (11761932_at) / Fold change /veh TUBB4B (11761932_at) / RFU CAPN14 (11732068_a_at) / Fold change /veh CAPN14 (11732068_a_at) / RFU TMCC2 (11721928_a_at) / Fold change /veh TMCC2 (11721928_a_at) / RFU IRGQ (11745062_a_at) / Fold change /veh IRGQ (11745062_a_at) / RFU FAM174B (11720279_a_at) / Fold change /veh FAM174B (11720279_a_at) / RFU TMPRSS4 (11748680_a_at) / Fold change /veh TMPRSS4 (11748680_a_at) / RFU FAM212B (11763350_a_at) / Fold change /veh FAM212B (11763350_a_at) / RFU PLEKHG5 (11743358_a_at) / Fold change /veh PLEKHG5 (11743358_a_at) / RFU ZSCAN30 (11745921_a_at) / Fold change /veh ZSCAN30 (11745921_a_at) / RFU CMKLR1 (11741424_a_at) / Fold change /veh CMKLR1 (11741424_a_at) / RFU LOC101060620 /// MAPK8IP1 (11723275_at) / Fold change /veh LOC101060620 /// MAPK8IP1 (11723275_at) / RFU SPTSSB (11747773_x_at) / Fold change /veh SPTSSB (11747773_x_at) / RFU PRSS12 (11739890_at) / Fold change /veh PRSS12 (11739890_at) / RFU BIN1 (11741810_x_at) / Fold change /veh BIN1 (11741810_x_at) / RFU WNT11 (11732464_a_at) / Fold change /veh WNT11 (11732464_a_at) / RFU C10orf10 (11716521_a_at) / Fold change /veh C10orf10 (11716521_a_at) / RFU C5orf56 (11738089_at) / Fold change /veh C5orf56 (11738089_at) / RFU CYB561 (11721691_x_at) / Fold change /veh CYB561 (11721691_x_at) / RFU ANKRD19P (11752326_a_at) / Fold change /veh ANKRD19P (11752326_a_at) / RFU OR2T12 /// OR2T33 /// OR2T8 (11738714_s_at) / Fold change /veh OR2T12 /// OR2T33 /// OR2T8 (11738714_s_at) / RFU VCAN (11748164_a_at) / Fold change /veh VCAN (11748164_a_at) / RFU JSRP1 (11732532_at) / Fold change /veh JSRP1 (11732532_at) / RFU KRTAP10-11 (11738290_x_at) / Fold change /veh KRTAP10-11 (11738290_x_at) / RFU MYO3A (11730013_a_at) / Fold change /veh MYO3A (11730013_a_at) / RFU EBF3 (11725865_a_at) / Fold change /veh EBF3 (11725865_a_at) / RFU CAMK2N1 (11719241_x_at) / Fold change /veh CAMK2N1 (11719241_x_at) / RFU C5orf56 (11738088_a_at) / Fold change /veh C5orf56 (11738088_a_at) / RFU OLFML3 (11715873_a_at) / Fold change /veh OLFML3 (11715873_a_at) / RFU LOC100653217 /// NTM (11731650_a_at) / Fold change /veh LOC100653217 /// NTM (11731650_a_at) / RFU MAPK11 (11762145_a_at) / Fold change /veh MAPK11 (11762145_a_at) / RFU FIZ1 (11724087_x_at) / Fold change /veh FIZ1 (11724087_x_at) / RFU OASL (11726364_x_at) / Fold change /veh OASL (11726364_x_at) / RFU SOX15 (11748057_x_at) / Fold change /veh SOX15 (11748057_x_at) / RFU CD79A (11719716_a_at) / Fold change /veh CD79A (11719716_a_at) / RFU HIST1H1D (11736915_at) / Fold change /veh HIST1H1D (11736915_at) / RFU CASKIN2 (11723855_a_at) / Fold change /veh CASKIN2 (11723855_a_at) / RFU LOC730098 (11760151_x_at) / Fold change /veh LOC730098 (11760151_x_at) / RFU OR4N2 (11742367_at) / Fold change /veh OR4N2 (11742367_at) / RFU PRRT2 (11749266_a_at) / Fold change /veh PRRT2 (11749266_a_at) / RFU SNX32 (11753110_a_at) / Fold change /veh SNX32 (11753110_a_at) / RFU CDHR5 (11726645_a_at) / Fold change /veh CDHR5 (11726645_a_at) / RFU RCAN1 (11760418_a_at) / Fold change /veh RCAN1 (11760418_a_at) / RFU FAM167A (11723789_a_at) / Fold change /veh FAM167A (11723789_a_at) / RFU FAM26E (11764081_at) / Fold change /veh FAM26E (11764081_at) / RFU ISYNA1 (11749810_s_at) / Fold change /veh ISYNA1 (11749810_s_at) / RFU ACY1 (11761880_at) / Fold change /veh ACY1 (11761880_at) / RFU 11764098_at / Fold change /veh 11764098_at / RFU SAMD14 (11745864_x_at) / Fold change /veh SAMD14 (11745864_x_at) / RFU NPB (11741838_a_at) / Fold change /veh NPB (11741838_a_at) / RFU TMPRSS6 (11731388_a_at) / Fold change /veh TMPRSS6 (11731388_a_at) / RFU KRTAP10-2 (11738614_at) / Fold change /veh KRTAP10-2 (11738614_at) / RFU ARHGAP8 /// PRR5-ARHGAP8 (11727945_x_at) / Fold change /veh ARHGAP8 /// PRR5-ARHGAP8 (11727945_x_at) / RFU KRTAP5-7 /// NADSYN1 (11734609_at) / Fold change /veh KRTAP5-7 /// NADSYN1 (11734609_at) / RFU RASL12 (11751679_a_at) / Fold change /veh RASL12 (11751679_a_at) / RFU CDKN2B (11736163_a_at) / Fold change /veh CDKN2B (11736163_a_at) / RFU PRF1 (11729649_at) / Fold change /veh PRF1 (11729649_at) / RFU, ZNF638 /// ZNF638-IT1 / Fold change vs veh, ZNF638 /// ZNF638-IT1 / RFU, PANK3 / Fold change vs veh, PANK3 / RFU, SH3YL1 / Fold change vs veh, SH3YL1 / RFU, ZEB2 / Fold change vs veh, ZEB2 / RFU, NRIP1 / Fold change vs veh, NRIP1 / RFU, PTTG1IP / Fold change vs veh, PTTG1IP / RFU, CAPN2 / Fold change vs veh, CAPN2 / RFU, MED14 / Fold change vs veh, MED14 / RFU, SNORA58 / Fold change vs veh, SNORA58 / RFU, C1orf63 / Fold change vs veh, C1orf63 / RFU, LRRFIP1 / Fold change vs veh, LRRFIP1 / RFU, NDUFAF7 / Fold change vs veh, NDUFAF7 / RFU, SLC12A2 / Fold change vs veh, SLC12A2 / RFU, IBTK / Fold change vs veh, IBTK / RFU, ESF1 / Fold change vs veh, ESF1 / Fold change vs veh, TMEM50B / RFU, TAOK1 / Fold change vs veh, TAOK1 / RFU, ACBD3 / Fold change vs veh, ACBD3 / RFU, TMA16 / Fold change vs veh, TMA16 / RFU, RWDD3 / Fold change vs veh, RWDD3 / RFU, BCAT1 / Fold change vs veh, BCAT1 / RFU, EDEM3 / Fold change vs veh, EDEM3 / RFU, TMEM33 / Fold change vs veh, TMEM33 / RFU, WDR75 / Fold change vs veh, WDR75 / RFU, AHCTF1 / Fold change vs veh, AHCTF1 / RFU, TFRC / Fold change vs veh, TFRC / RFU, ZDHHC17 / Fold change vs veh, ZDHHC17 / RFU, NOM1 / Fold change vs veh, NOM1 / RFU, ARL8B / Fold change vs veh, ARL8B / RFU, ZBTB11 / Fold change vs veh, ZBTB11 / RFU, TAMM41 / Fold change vs veh, TAMM41 / RFU, KIAA1704 /// LOC100996395 / Fold change vs veh, KIAA1704 /// LOC100996395 / RFU, ING1 / Fold change vs veh, ING1 / RFU, TRMT61B / Fold change vs veh, TRMT61B / RFU, FUBP3 / Fold change vs veh, FUBP3 / RFU, TP53 / Fold change vs veh, TP53 / RFU, TNKS2 / Fold change vs veh, TNKS2 / RFU, ZFP14 / Fold change vs veh, ZFP14 / RFU, ACTR2 / Fold change vs veh, ACTR2 / RFU, PPP3R1 / Fold change vs veh, PPP3R1 / RFU, PIK3R1 / Fold change vs veh, PIK3R1 / RFU, HNRNPA1 / Fold change vs veh, HNRNPA1 / RFU, RNF170 / Fold change vs veh, RNF170 / RFU, ZNF28 / Fold change vs veh, ZNF28 / RFU, RNGTT / Fold change vs veh, RNGTT / RFU, OGT / Fold change vs veh, OGT / RFU, BRD1 / Fold change vs veh, BRD1 / RFU, MARS / Fold change vs veh, MARS / RFU, ZNF655 / Fold change vs veh, ZNF655 / RFU, FAHD1 / Fold change vs veh, FAHD1 / RFU, BDP1 / Fold change vs veh, BDP1 / RFU, LRRCC1 / Fold change vs veh, LRRCC1 / RFU, ARID1A / Fold change vs veh, ARID1A / RFU, ZNF146 / Fold change vs veh, ZNF146 / RFU, ZNF330 / Fold change vs veh, ZNF330 / RFU, GPN3 / Fold change vs veh, GPN3 / RFU, C9orf123 / Fold change vs veh, C9orf123 / RFU, N4BP2L2 / Fold change vs veh, N4BP2L2 / RFU, ARFIP1 / Fold change vs veh, ARFIP1 / RFU, FAM179B / Fold change vs veh, FAM179B / RFU, BCL10 / Fold change vs veh, BCL10 / RFU, UHRF1BP1L / Fold change vs veh, UHRF1BP1L / RFU, BET1 / Fold change vs veh, BET1 / RFU, CNOT2 / Fold change vs veh, CNOT2 / RFU, ZNF268 / Fold change vs veh, ZNF268 / Fold change vs veh, ZNF507 / RFU, DGCR2 / Fold change vs veh, DGCR2 / RFU, WDSUB1 / Fold change vs veh, WDSUB1 / Fold change vs veh, HSP90B1 /// MIR3652 / RFU, ADSS / Fold change vs veh, ADSS / RFU, GK / Fold change vs veh, GK / RFU, ZNF148 / Fold change vs veh, ZNF148 / RFU, TAF9 / Fold change vs veh, TAF9 / RFU, SLC1A5 / Fold change vs veh, SLC1A5 / RFU, SLMO2 / Fold change vs veh, SLMO2 / RFU, ABCC4 / Fold change vs veh, ABCC4 / RFU, LOC101060439 /// RAP1B / Fold change vs veh, LOC101060439 /// RAP1B / RFU, RFX7 / Fold change vs veh, RFX7 / RFU, GTPBP10 / Fold change vs veh, GTPBP10 / RFU, CNEP1R1 / Fold change vs veh, CNEP1R1 / RFU, BIVM-ERCC5 /// ERCC5 / Fold change vs veh, BIVM-ERCC5 /// ERCC5 / RFU, ILF3 / Fold change vs veh, ILF3 / RFU 11762660_at / Fold change /veh 11762660_at / RFU VCAN (11757783_s_at) / Fold change /veh VCAN (11757783_s_at) / RFU DDX43 (11728927_at) / Fold change /veh DDX43 (11728927_at) / RFU KRT8 (11758188_x_at) / Fold change /veh KRT8 (11758188_x_at) / RFU NKD1 (11759106_at) / Fold change /veh NKD1 (11759106_at) / RFU SRD5A1 (11742802_a_at) / Fold change /veh SRD5A1 (11742802_a_at) / RFU TPSAB1 /// TPSB2 (11721975_s_at) / Fold change /veh TPSAB1 /// TPSB2 (11721975_s_at) / RFU GSTM3 (11746129_a_at) / Fold change /veh GSTM3 (11746129_a_at) / RFU IL23R (11737362_x_at) / Fold change /veh IL23R (11737362_x_at) / RFU TMEM51 (11727254_a_at) / Fold change /veh TMEM51 (11727254_a_at) / RFU PIWIL2 (11732686_x_at) / Fold change /veh PIWIL2 (11732686_x_at) / RFU ORM1 (11744905_x_at) / Fold change /veh ORM1 (11744905_x_at) / RFU CCDC152 (11743942_at) / Fold change /veh CCDC152 (11743942_at) / RFU ECM1 (11717891_a_at) / Fold change /veh ECM1 (11717891_a_at) / RFU IL23R (11748794_a_at) / Fold change /veh IL23R (11748794_a_at) / RFU TNFAIP8L3 (11732012_x_at) / Fold change /veh TNFAIP8L3 (11732012_x_at) / RFU MBOAT4 (11741988_at) / Fold change /veh MBOAT4 (11741988_at) / RFU 11764193_at / Fold change /veh 11764193_at / RFU TMEM53 (11763286_at) / Fold change /veh TMEM53 (11763286_at) / RFU MAGEB2 (11727129_at) / Fold change /veh MAGEB2 (11727129_at) / RFU TMEM200A (11744735_a_at) / Fold change /veh TMEM200A (11744735_a_at) / RFU CCDC152 (11751479_a_at) / Fold change /veh CCDC152 (11751479_a_at) / RFU FAM211A (11726209_a_at) / Fold change /veh FAM211A (11726209_a_at) / RFU RGS16 (11746705_a_at) / Fold change /veh RGS16 (11746705_a_at) / RFU VCAN (11755009_s_at) / Fold change /veh VCAN (11755009_s_at) / RFU RHOB (11743442_s_at) / Fold change /veh RHOB (11743442_s_at) / RFU RGS16 (11720943_a_at) / Fold change /veh RGS16 (11720943_a_at) / RFU RGS16 (11720944_at) / Fold change /veh RGS16 (11720944_at) / RFU, VPS4B / Fold change vs veh, VPS4B / RFU, CREB1 / Fold change vs veh, CREB1 / RFU, DNAJC13 / Fold change vs veh, DNAJC13 / RFU, GNAQ / Fold change vs veh, GNAQ / RFU, CDK5R1 / Fold change vs veh, CDK5R1 / RFU, ZRANB3 / Fold change vs veh, ZRANB3 / RFU, CUL4A / Fold change vs veh, CUL4A / RFU, CCNY / Fold change vs veh, CCNY / RFU, UFL1 / Fold change vs veh, UFL1 / RFU, COG3 / Fold change vs veh, COG3 / RFU, DIAPH2 / Fold change vs veh, DIAPH2 / RFU, SKA2 / Fold change vs veh, SKA2 / RFU, AFF3 / Fold change vs veh, AFF3 / RFU, LMF1 / Fold change vs veh, LMF1 / RFU, IPO11 / Fold change vs veh, IPO11 / RFU, DFFB / Fold change vs veh, DFFB / RFU, FOXP1 / Fold change vs veh, FOXP1 / RFU, CARD8 / Fold change vs veh, CARD8 / RFU, STRN3 / Fold change vs veh, STRN3 / RFU, ADK / Fold change vs veh, ADK / RFU, RASSF2 / Fold change vs veh, RASSF2 / RFU, WIPF1 / Fold change vs veh, WIPF1 / RFU, LARP1B / Fold change vs veh, LARP1B / RFU, RASA1 / Fold change vs veh, RASA1 / RFU, RB1 / Fold change vs veh, RB1 / RFU, PPFIA1 / Fold change vs veh, PPFIA1 / RFU, MAT2A / Fold change vs veh, MAT2A / RFU, CCT5 / Fold change vs veh, CCT5 / RFU, WDR92 / Fold change vs veh, WDR92 / RFU, CUX1 / Fold change vs veh, CUX1 / RFU, TTC7A / Fold change vs veh, TTC7A / RFU, TMEM135 / Fold change vs veh, TMEM135 / RFU, DEPTOR / Fold change vs veh, DEPTOR / RFU, CPM / Fold change vs veh, CPM / RFU, DNAJB6 / Fold change vs veh, DNAJB6 / RFU, CACNA2D3 / Fold change vs veh, CACNA2D3 / RFU, DTX4 / Fold change vs veh, DTX4 / RFU, TFCP2 / Fold change vs veh, TFCP2 / RFU, GMCL1 /// GMCL1P1 / Fold change vs veh, GMCL1 /// GMCL1P1 / RFU, AEBP2 / Fold change vs veh, AEBP2 / RFU, SNHG1 /// SNORD22 /// SNORD25 /// SNORD26 /// SNORD27 /// SNORD28 /// SNORD29 /// SNORD31 / Fold change vs veh, SNHG1 /// SNORD22 /// SNORD25 /// SNORD26 /// SNORD27 /// SNORD28 /// SNORD29 /// SNORD31 / Fold change (Aza/veh), C12orf56 (ProbeSet 11735607_a_at) / Fold change (ACY-1035/veh), C12orf56 (ProbeSet 11735607_a_at) / Fold change (Aza/veh), FGFR1OP (ProbeSet 11751329_s_at) / Fold change (ACY-1035/veh), FGFR1OP (ProbeSet 11751329_s_at) / Fold change (Aza/veh), VPS36 (ProbeSet 11739960_a_at) / Fold change (ACY-1035/veh), VPS36 (ProbeSet 11739960_a_at) / RFU SYPL1 (11715823_x_at) / Fold change /veh SYPL1 (11715823_x_at) / RFU IGFBP7 (11715501_s_at) / Fold change /veh IGFBP7 (11715501_s_at) / RFU REEP3 (11722064_at) / Fold change /veh REEP3 (11722064_at) / RFU IGLL1 (11728026_x_at) / Fold change /veh IGLL1 (11728026_x_at): dose or concentration left out as unconfirmed
Conditions: MV-4-11 cells, 48 hours

Nc1ncn([C@@H]2O[C@H](CO)[C@@H](O)[C@H]2O)c(=O)n1 [azacitidine]
Fold change /veh REEP3 (11722064_at): 0.73
